# Test results: US20230365589A1, “NOVEL AMINE DERIVATIVES” (Sumitomo Pharma Co., Ltd., priority 2020, published 2023)
# Where two headings read alike, the source gives them in different places.
# Tests used:
# Assay type in all cases: biochemical
# DYRK1A = biological target: T1, DYRK1A (Homo sapiens, UniProt Q13627); assay: Inhibition test on activity of DYRK family, mobility shift assay (MSA): DYRK1A
# T1 construct: purchased Carna Biosciences, Inc. 04-130
# Procedure: (§1) [Inhibition Test on Activity of DYRK Family (DYRK1A, DYRK1B, DYRK2, and DYRK3)]
# (§2) The kinase activity was measured by mobility shift assay (MSA) method using QuickScout Screening Assist™ MSA (commercially available kit manufactured by Carna Biosciences, Inc.). The substrate of the kinase reaction used was an FITC-labeled DYRKtide peptide included in the kit. An assay buffer [20 mM HEPES, 0.01% Triton X-100™, 2 mM dithiothreitol, pH 7.5]was used to create a substrate mixture solution with a substrate (4 μM), MgCl2(20 mM), and ATP (DYRK1A: 100 μM; DYRK1B: 200 μM; DYRK2: 40 μM; and DYRK3: 20 μM). In addition, kinases (DYRK1A: manufactured by Carna Biosciences, Inc., Cat. No. 04-130; DYRK1B: manufactured by Carna Biosciences, Inc., Cat. No. 04-131; DYRK2; manufactured by Carna Biosciences, Inc., Cat. No. 04-132; and DYRK3; manufactured by Carna Biosciences, Inc., Cat. No. 04-133) were diluted with the assay buffer to prepare enzyme solutions (DYRK1A: 0.2 ng/μL; DYRK1B: 0.08 ng/μL; DYRK2: 0.04 ng/μL; and DYRK3: 0.25 ng/μL). The 10 mM solution of the test compound in DMSO was further diluted with DMSO to 10 levels of the concentration (0.00003 mM, 0.0001 mM, 0.0003 mM, 0.001 mM, 0.003 mM, 0.01 mM, 0.03 mM, 0.1 mM, 0.3 mM, and 1 mM), each of which was subjected to 25-fold dilution with the assay buffer to obtain a drug solution (4% DMSO solution). 5 μL of the drug solution or a control solution (4% DMSO-assay buffer), 5 μL of the substrate mixture solution, and 10 μL of the enzyme solution were mixed in the wells of a polypropylene 384-well plate and allowed to react at room temperature for 1 hour, and then the reaction was quenched by adding 60 μL of the termination buffer included in the kit. Subsequently, the quantities of the substrates (S) and the phosphorylated substrate (P) in the reaction solution were measured using LabChip EZ Reader II system (manufactured by Caliper Life Sciences) according to the protocol of the assay kit.
# (§3) The heights of the peaks of the “substrate” and the “phosphorylated substrate” were expressed as S and P, respectively, and a blank containing the assay buffer instead of the enzyme solution was also measured.
# (§4) The inhibition rate (%) of the test compound was calculated according to the following equation:
# (§5) Inhibition rate (%)=(1−(C−A)/(B−A))×100 • wherein, A, B, and C represent P/(P+S) of the blank well, P/(P+S) of the control solution well, and P/(P+S) of the compound-containing well, respectively.
# (§6) The IC50 value was calculated via a regression analysis of the inhibition rate and the test compound concentration (logarithmic value).
# DYRK3 = biological target: T2, DYRK3 (Homo sapiens, UniProt O43781); assay: Inhibition test on activity of DYRK family, mobility shift assay (MSA): DYRK3
# T2 construct: purchased Carna Biosciences, Inc. 04-133
# T2 sequence (O43781 1-568 isoform O43781-2): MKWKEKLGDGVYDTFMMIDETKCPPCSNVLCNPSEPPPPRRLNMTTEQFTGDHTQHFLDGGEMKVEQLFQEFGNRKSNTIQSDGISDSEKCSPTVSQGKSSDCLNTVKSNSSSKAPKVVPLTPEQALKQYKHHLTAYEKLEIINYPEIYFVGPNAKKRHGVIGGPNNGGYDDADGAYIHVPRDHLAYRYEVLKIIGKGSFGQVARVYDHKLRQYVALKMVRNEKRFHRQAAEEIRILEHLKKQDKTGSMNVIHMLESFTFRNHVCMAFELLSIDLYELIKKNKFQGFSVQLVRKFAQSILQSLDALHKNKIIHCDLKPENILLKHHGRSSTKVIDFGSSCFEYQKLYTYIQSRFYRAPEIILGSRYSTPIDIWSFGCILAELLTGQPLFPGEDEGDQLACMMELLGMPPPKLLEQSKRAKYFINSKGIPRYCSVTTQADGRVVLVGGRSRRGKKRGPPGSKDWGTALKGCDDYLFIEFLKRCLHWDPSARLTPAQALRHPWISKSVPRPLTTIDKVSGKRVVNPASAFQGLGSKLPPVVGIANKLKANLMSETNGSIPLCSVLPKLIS
# Procedure: as §1, §2, §3, §4, §5, §6
# (§7) The inhibiting activities of representative compounds of the present invention are shown against DYRK1A, DYRK1B, DYRK2, and DYRK3 in Tables.
# DYRK2 = biological target: T3, DYRK2 (Homo sapiens, UniProt Q92630); assay: Inhibition test on activity of DYRK family, mobility shift assay (MSA): DYRK2
# T3 construct: purchased Carna Biosciences, Inc. 04-132
# T3 sequence (Q92630 74-601 limits assumed): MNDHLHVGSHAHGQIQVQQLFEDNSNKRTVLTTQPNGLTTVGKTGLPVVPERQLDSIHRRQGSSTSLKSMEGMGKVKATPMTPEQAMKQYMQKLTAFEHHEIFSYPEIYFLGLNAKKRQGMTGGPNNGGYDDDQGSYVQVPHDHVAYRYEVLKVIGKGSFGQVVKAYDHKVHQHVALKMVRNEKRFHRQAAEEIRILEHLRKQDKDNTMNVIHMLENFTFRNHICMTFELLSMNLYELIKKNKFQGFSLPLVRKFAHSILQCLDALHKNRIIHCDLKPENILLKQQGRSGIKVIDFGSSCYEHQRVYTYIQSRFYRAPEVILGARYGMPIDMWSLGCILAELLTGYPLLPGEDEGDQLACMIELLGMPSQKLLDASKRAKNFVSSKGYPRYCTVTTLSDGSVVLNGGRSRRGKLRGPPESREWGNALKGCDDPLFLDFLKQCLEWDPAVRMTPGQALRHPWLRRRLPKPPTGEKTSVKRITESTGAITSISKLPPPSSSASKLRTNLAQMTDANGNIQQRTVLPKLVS
# Procedure: as §1, §2, §3, §4, §5, §6, §7
# [1] = MSA, FITC-labeled DYRKtide peptide, ATP 100 μM, read-out: Inhibitory activity DYRK 1A (IC50 class)
# [2] = MSA, FITC-labeled DYRKtide peptide, ATP 20 μM, read-out: Inhibitory activity DYRK 3 (IC50 class)
# [3] = MSA, FITC-labeled DYRKtide peptide, ATP 40 μM, read-out: Inhibitory activity DYRK 2 (IC50 class)
# [4] = read-out: Inhibitory activity DYRK 1A
# [5] = read-out: Inhibitory activity DYRK 3
# [6] = read-out: Inhibitory activity DYRK 2
SMILES,IC50 (DYRK1A; [1]) [nM],IC50 (DYRK3; [2]) [nM],IC50 (DYRK2; [3]) [nM],IC50 (DYRK1A; [4]) [nM],IC50 (DYRK3; [5]) [nM],IC50 (DYRK2; [6]) [nM]
CCN1CCC2C(C1)NC(=O)N2c1nc2c3c(ccc2s1)OCC3 (stereo not drawn) [Example 12],10 to 100,100 to 1000,100 to 1000,–,–,–
"CC(C)N1CC[C@H]2NC(=O)N(c3nc4c5c(ccc4s3)OCC5)[C@H]2C1 (relative stereo) [Example 15, cis-3-(7,8-dihydrofuro[3,2-e][1,3]benzothiazol-2-yl)-5-(propan-2-yl)octahydro-2H-imidazo[4,5-c]pyridin-2-one]",10 to 100,≥ 1000,≥ 1000,–,–,–
"C#CCN1CCC[C@@H]2NC(=O)N(c3nc4c5c(ccc4s3)OCC5)[C@@H]2C1 (racemic) [Example 105, rac-(3aR,8aS)-3-(7,8-dihydrofuro[3,2-e][1,3]benzothiazol-2-yl)-5-(2-propyn-1-yl)octahydroimidazo[4,5-c]azepin-2(1H)-one]",–,–,–,10 to 100,≥ 1000,≥ 1000
"C#CCN1CC[C@@H]2NC(=O)N(c3nc4c5c(ccc4s3)OCC5)[C@@H]2C1 (single isomer, unassigned) [Example 114]",–,–,–,< 10,100 to 1000,100 to 1000
C[C@@H]1[C@@H]2NC(=O)N(c3nc4c5c(ccc4s3)OCC5)[C@@H]2CCN1C [Example 97],–,–,–,100 to 1000,≥ 1000,≥ 1000
CO[C@H]1C[C@H]2NC(=O)N(c3nc4c5c(ccc4s3)OCC5)[C@H]2CO1 [Example 130],–,–,–,100 to 1000,≥ 1000,≥ 1000
C[C@H]1C[C@H]2NC(=O)N(c3nc4c5c(ccc4s3)OCC5)C2CN1C (stereo partly drawn) [Example 92],–,–,–,100 to 1000,≥ 1000,≥ 1000
"O=C1N[C@H]2COC(O)C[C@H]2N1c1nc2c3c(ccc2s1)OCC3 (stereo partly drawn) [Example 150, (3aR,7aR)-1-(7,8-Dihydrofuro[3,2-e][1,3]benzothiazol-2-yl)-6-hydroxyhexahydropyrano[3,4-d]imidazol-2(3H)-one]",10 to 100,100 to 1000,100 to 1000,–,–,–
O=C1N[C@H]2CN(C3CC3)CC[C@H]2N1c1nc2c3c(ccc2s1)OCCO3 [Example 88],100 to 1000,≥ 1000,≥ 1000,–,–,–
C[C@H]1C[C@H]2NC(=O)N(c3nc4c5c(ccc4s3)OCC5)[C@H]2CO1 [Example 134],100 to 1000,≥ 1000,≥ 1000,–,–,–
"O=C1N[C@H]2CO[C@@H](CO)C[C@H]2N1c1nc2c3c(ccc2s1)OCO3 [Example 147, (3aR,6R,7aR)-1-(2H-[1,3]dioxolo[4,5-e][1,3]benzothiazol-7-yl)-6-(hydroxymethyl)hexahydropyrano[3,4-d]imidazol-2(3H)-one]",< 10,100 to 1000,≥ 1000,–,–,–
"C#CCN1CC[C@@H]2NC(=O)N(c3nc4c5c(ccc4s3)OCC5)[C@@H]2C1 (racemic) [Example 99, rac-(3aR,7aS)-3-(7,8-dihydrofuro[3,2-e][1,3]benzothiazol-2-yl)-5-(2-propyn-1-yl)octahydro-2H-imidazo[4,5-c]pyridin-2-one]",–,–,–,< 10,100 to 1000,100 to 1000
O=C1N[C@H]2CNC3(CC3)C[C@H]2N1c1nc2c3c(ccc2s1)OCC3 [Example 56],100 to 1000,100 to 1000,≥ 1000,–,–,–
O=C1N[C@H]2CCCNC[C@H]2N1c1nc2c3c(ccc2s1)OCO3 [Example 55],100 to 1000,100 to 1000,≥ 1000,–,–,–
"O=C1N[C@H]2CCCN(C3COC3)C[C@H]2N1c1nc2c3c(ccc2s1)OCC3 (racemic) [Example 73, rac-(3aR,8aS)-3-(7,8-dihydrofuro[3,2-e][1,3]benzothiazol-2-yl)-5-(oxetan-3-yl)octahydroimidazo[4,5-c]azepin-2(1H)-one]",< 10,≥ 1000,100 to 1000,–,–,–
"CN1CC[C@@H]2[C@H](C1)NC(=O)N2c1nc2c3c(ccc2s1)OCCO3 (racemic) [Example 77, rac-(3aR,7aS)-1-(7,8-dihydro[1,4]dioxino[2,3-e][1,3]benzothiazol-2-yl)-5-methyloctahydro-2H-imidazo[4,5-c]pyridin-2-one]",10 to 100,100 to 1000,≥ 1000,–,–,–
"C#C[C@H]1C[C@@H]2[C@H](CO1)NC(=O)N2c1nc2c3c(ccc2s1)OCC3 [Example 149, (3aR,6R,7aR)-1-(7,8-dihydrofuro[3,2-e][1,3]benzothiazol-2-yl)-6-ethynylhexahydropyrano[3,4-d]imidazol-2(3H)-one]",< 10,100 to 1000,≥ 1000,–,–,–
O=C1N[C@H]2CNC[C@H](F)[C@H]2N1c1nc2c3c(ccc2s1)OCC3 [Example 49],10 to 100,100 to 1000,100 to 1000,–,–,–
CN1C[C@@H]2NC(=O)N(c3nc4c5c(ccc4s3)OCC5)[C@@H]2[C@@H](F)C1 [Example 74],100 to 1000,100 to 1000,≥ 1000,–,–,–
O=C1N[C@H]2[C@H](F)CNC[C@H]2N1c1nc2c3c(ccc2s1)OCC3 [Example 50],100 to 1000,100 to 1000,≥ 1000,–,–,–
C[C@@H]1NC(=O)N(c2nc3c4c(ccc3s2)OCC4)[C@@H]1CN(C)C [Example 25],10 to 100,≥ 1000,≥ 1000,–,–,–
